According to patent publication US20240400589A1, “4-AMINOPHENYLPHOSPHO[…] FOR BLOCKING C-REACTIVE PROTEIN” (Pentracor GmbH, priority 2021, published 2024):
Where two headings read alike, the source gives them in different places. Where a SMILES comes first, the peptide text is derived from it. The star is where a group is joined. X1 = C[N+](C)(C)CCOP(=O)([O-])Oc1ccc(N*)cc1

Columns and labels:
[1] = target: T1, CRP (CRP-containing human plasma) (Homo sapiens, UniProt P02741); experiment: Inhibition of CRP binding to a plate-coated BSA-APPC construct
T1 construct: from tissue; host or cells: human plasma
T1 sequence (P02741 19-224): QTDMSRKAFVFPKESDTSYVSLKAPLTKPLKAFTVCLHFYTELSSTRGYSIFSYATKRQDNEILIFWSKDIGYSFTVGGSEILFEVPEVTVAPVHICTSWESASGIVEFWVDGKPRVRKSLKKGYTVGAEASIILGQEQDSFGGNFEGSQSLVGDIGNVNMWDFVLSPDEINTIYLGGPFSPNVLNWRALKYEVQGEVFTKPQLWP
Method: A microtiter plate was coated with 100 μg/mL of a BSA-APPC construct, which binds CRP in a calcium-dependent manner, for 1 hour at room temperature (coating buffer: 0.1 M NaHCO3). Subsequently, 4 washes with 400 μl binding buffer (0.1 M Tris, 0.2 M NaCl, 2 mM CaCl2)) and non-specific binding sites were saturated with block solution (1% casein, 0.9% NaCl, 0.001% thiomersal) for 1 h at room temperature or overnight at 2-8° C.
Afterwards, the block solution was removed and the samples were applied in binding buffer. CRP-containing human plasma was diluted to 50 ng/mL CRP and applied either pure or together with different concentrations (0.25-3 mM) of the various inhibitors 1, 4, 5 and APPC and incubated for 1.5 h at room temperature with horizontal shaking (600 rpm). The plate was then washed again as described above.
After washing, 100 μL of a POD-labelled rabbit anti-huCRP antibody (final concentration: 25 ng/mL) in calcium-containing block solution (final concentration of calcium 4 mM) was added and the plate was incubated for 1.5 h at room temperature with shaking.
The plate was then washed again as described above. Development was carried out by adding 100 μl substrate buffer (0.2 M citric acid, 0.01% H2O2, 100 μg/mL TMB). The colour reaction was stopped by adding 50 μL of 1 M H2SO4 and the absorbance was measured at 450 nm. The absorbance at 655 nm (turbidity) was subtracted as background.
For the determination of inhibition, the OD of the CRP with inhibitor was normalised to the OD of the CRP without inhibitor:
The relative OD was then plotted against the concentration of stabilised APPC constructs in the batch. Only APPC was used as a comparative sample. It is clear that constructs 1 and 5 or 3 and APPC show an inhibition curve that is identical within the measurement uncertainty. […] For APPC/3, the corresponding concentration is 0.7±0.06 mmol/L. Thus, all stabilised APPC constructs show a good inhibition capacity.

huCRP [2] = target: T2, huCRP (Homo sapiens, UniProt P02741); experiment: ELISA: binding of CRP to solid phase-fixed biotin-D-Glu(APPC)-NH2 on streptavidin-coated microtiter plates; settings: for Optical Density (OD): mean of duplicates
T2 sequence (P02741 19-224): T1 sequence (P02741 19-224)
Method: Streptavidin-coated microtiter plates were incubated with a solution containing biotin-D-Glu(APPC)—NH2) (2) and then washed with phosphate buffer (PBS). The reactive parts of the MTP surface were then blocked with BSA solution (a standard procedure). CRP was then added in a concentration range of 31-500 ng/ml and incubated (see table below). After renewed washing, the bound CRP was detected using a murine monoclonal antibody (DH7) against CRP and a secondary, POD-conjugated anti-mouse antibody, followed by substrate development

huCRP [3] = target: T2, huCRP; experiment: ELISA: binding of free CRP and free biotin-D-Glu(APPC)-NH2 in solution, complex captured on streptavidin plates; settings: for Optical Density (OD): mean of duplicates
Method: CRP and compound 2 were incubated in a reaction vessel for 1 h at room temperature for complexation. The final concentrations were 10 μg/ml CRP (MW approx. 125 KD) and 2 μg/ml compound 2 (MW approx. 1 KD). The solution was then added to streptavidin-coated microtiter plates (MTP) at the dilution levels indicated in Tab. 2 at […] each and incubated with a block solution (Roche) for 30 min at room temperature. The MTPs were then washed 3 times. Using the in house monoclonal antibody “DH7” specific for huCRP and a peroxidase-conjugated secondary antibody (anti-mouse) as well as the substrate TMB, the huCRP previously bound to compound 2 was detected.

[4] = 50 ng/mL CRP from human plasma, inhibitor 0.25-3 mM, BSA-APPC coated plate, read-out: 50% inhibitor concentration (IC50)

## C[N+](C)(C)CCOP(=O)([O-])Oc1ccc(NC(=O)CC[C@@H](N)C(N)=O)cc1 [Compound 1, D-Glu(APPC)—NH2]
[1]; [4]
  IC50: 1.6 ± 0.1 mM

## C[N+](C)(C)CCOP(=O)([O-])Oc1ccc(N)cc1 [APPC, 4-aminophenylphosphocholine, reference compound]
[1]; [4]
  IC50: 0.7 ± 0.06 mM

## C[N+](C)(C)CCOP(=O)([O-])Oc1ccc(NC(=O)CC[C@@H](NC(=O)CCCC[C@@H]2SC[C@@H]3NC(=O)N[C@@H]32)C(N)=O)cc1 [Compound 2, Biotin-D-Glu(APPC)—NH2]
huCRP [2]; CRP 31 ng/ml
  Optical Density (OD): 1.061
huCRP [2]; CRP 62.5 ng/ml
  Optical Density (OD): 1.512
huCRP [2]; CRP 125 ng/ml
  Optical Density (OD): 2.081
huCRP [2]; CRP 250 ng/ml
  Optical Density (OD): 2.627
huCRP [2]; CRP 500 ng/ml
  Optical Density (OD): 3.242
huCRP [2]; solid phase-fixed compound
  Binding to CRP (CRP binding curve, FIG. 1): binds to CRP
huCRP [3]; complex dilution 1:20, 10 μg/ml CRP + 2 μg/ml compound 2
  Optical Density (OD): 2.685
huCRP [3]; complex dilution 1:40
  Optical Density (OD): 2.219
huCRP [3]; complex dilution 1:80
  Optical Density (OD): 1.801
huCRP [3]; complex dilution 1:160
  Optical Density (OD): 1.242
huCRP [3]; complex dilution 1:320
  Optical Density (OD): 0.875
huCRP [3]; complex dilution 1:640
  Optical Density (OD): 0.548
huCRP [3]; complex dilution 1:1280
  Optical Density (OD): 0.381
huCRP [3]; free CRP and free compound, 1 h room temperature
  Binding of CRP in solution (dilution series, FIG. 2): binds CRP in solution

## CC(=O)N1CCC[C@H]1C(=O)N[C@@H](C)C(=O)N[C@@H](CO)C(=O)N[C@@H](CCC(=O)Nc1ccc(OP(=O)([O-])OCC[N+](C)(C)C)cc1)C(=O)N1CCC[C@H]1C(=O)N[C@@H](C)C(=O)N[C@@H](CO)C(N)=O [Compound 5] (Ac-PASE(X1)PAS-NH2)
[1]
  IC50: 1.6 ± 0.1 mM
